What was measured:
BTK = molecular target: T1, BTK (Homo sapiens, UniProt Q06187); experiment: Tyrosine kinase assay (Kinase Selectivity System TK-2, ADP-Glo); assay type: biochemical; details: 1 h incubation, mean ± SD of four experiments
T1 construct: purchased Promega

BRK = molecular target: T2, BRK (Homo sapiens, UniProt Q13882); experiment: as above; assay type: biochemical; details: 1 h incubation, mean ± SD of four experiments
T2 construct: purchased Promega

CSK = molecular target: T3, CSK (Homo sapiens, UniProt P41240); experiment: as above; assay type: biochemical; details: 1 h incubation, mean ± SD of four experiments
T3 construct: purchased Promega

Fyn A = molecular target: T4, Fyn A (Homo sapiens, UniProt P06241); experiment: as above; assay type: biochemical; details: 1 h incubation, mean ± SD of four experiments
T4 construct: purchased Promega
T4 sequence (P06241 whole entry): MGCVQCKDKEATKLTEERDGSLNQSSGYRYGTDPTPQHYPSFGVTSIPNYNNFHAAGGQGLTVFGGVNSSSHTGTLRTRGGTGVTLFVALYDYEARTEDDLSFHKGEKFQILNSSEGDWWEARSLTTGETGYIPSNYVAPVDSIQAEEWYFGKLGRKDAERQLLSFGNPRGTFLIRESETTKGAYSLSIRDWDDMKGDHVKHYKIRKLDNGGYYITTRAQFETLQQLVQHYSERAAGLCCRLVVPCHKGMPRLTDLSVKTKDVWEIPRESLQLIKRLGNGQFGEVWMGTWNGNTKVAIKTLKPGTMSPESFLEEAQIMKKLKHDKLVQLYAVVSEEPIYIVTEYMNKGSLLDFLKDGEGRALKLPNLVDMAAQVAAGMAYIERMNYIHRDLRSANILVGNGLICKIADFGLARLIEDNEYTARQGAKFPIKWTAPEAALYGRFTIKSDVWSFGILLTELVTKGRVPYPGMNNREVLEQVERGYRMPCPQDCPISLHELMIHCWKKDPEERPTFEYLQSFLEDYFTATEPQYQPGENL
From the text: All newly synthesised derivatives were screened for their inhibitory potential towards eight non-receptor tyrosine kinases, such as ABL, BTK, BRK and Src family kinases, such as CSK, Lyn, Lck, Fyn and Src. […] To facilitate the analysis of the structure and enzymatic activity, all tested compounds were divided into four subgroups based on the main structural scaffolds (the general structure of each group is shown in the second column of Table 1). Series A, B, and C were subdivided according to the S^4-aryl substituent, while D represents the different styryl groups at the C^2-quinazoline position.
Herein, we used a kinase assay that contained fully expressed kinases with their regulatory domains, which are responsible for autoinhibition. The proteins are present in their unphosphorylated form and the procedure required supplementation with ATP. Importantly, autophosphorylation of ABL is dependent on […] concentration of the protein. Thus, our experimental conditions reflect the cellular process to be simulated. The luminescence signal detected after one hour of incubation with a peptide substrate was a measure of inhibition. Under these conditions, the question of whether the inhibitors tested bind to the ortho or allosteric site of the protein could be answered. […] To test this hypothesis, further molecular docking experiments were performed to more precisely determine the binding of the tested compounds to the ABL kinase.
To determine the inhibition of non-receptor tyrosine kinases, assays were performed using the kinase selectivity system TK-2 and the ADP-Glo Kinase Assay (both from Promega). The protocol was previously developed by our group and described in reports[12]^,[36]. Experiments were performed at least four times. Data are expressed as percentage of tyrosine kinase inhibitory activity after treatment with the derivatives tested.

Lyn B = molecular target: T5, Lyn B (Homo sapiens, UniProt P07948); experiment: as above; assay type: biochemical; details: 1 h incubation, mean ± SD of four experiments
T5 construct: purchased Promega
T5 sequence (P07948 1-491 isoform P07948-2): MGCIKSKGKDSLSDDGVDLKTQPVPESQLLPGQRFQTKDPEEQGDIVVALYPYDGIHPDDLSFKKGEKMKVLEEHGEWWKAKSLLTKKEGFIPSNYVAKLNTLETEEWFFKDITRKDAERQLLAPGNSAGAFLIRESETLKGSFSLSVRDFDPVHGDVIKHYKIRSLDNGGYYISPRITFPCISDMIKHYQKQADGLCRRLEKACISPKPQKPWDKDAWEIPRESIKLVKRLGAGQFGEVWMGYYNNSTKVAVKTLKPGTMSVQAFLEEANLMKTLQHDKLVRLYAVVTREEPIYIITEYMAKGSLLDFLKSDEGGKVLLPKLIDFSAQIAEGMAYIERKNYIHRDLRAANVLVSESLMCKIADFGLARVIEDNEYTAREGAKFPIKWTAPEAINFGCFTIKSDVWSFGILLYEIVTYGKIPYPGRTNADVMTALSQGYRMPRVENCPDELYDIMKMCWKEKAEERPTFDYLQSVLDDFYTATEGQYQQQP

K562 cells [1] = experiment: Cell cycle assay (Muse Cell-Cycle Kit, flow cytometry); assay type: cell-based, human; details: 16 h
Description: The interesting inhibitory potential of ABL kinase and the high antiproliferative activity of several styrylquinazoline derivatives prompted us to further investigate their mechanism of action.
K562 cells were seeded in 3 cm Petri dishes (Nunc) at a density of 150,000 cells per well and incubated under standard conditions at 37 °C for 24 h. […] After 16 h of treatment, assays were performed using a Muse Cell-Cycle Kit (Millipore) according to the supplier’s instructions. Briefly, leukaemia cells were collected, washed in cold PBS, and centrifuged. Cells were then fixed in ice-cold 70% ethanol and stored at −20 °C overnight. The next day, leukaemia cells were washed with cold PBS, centrifuged and resuspended in Muse™ Cell Cycle Reagent. Samples were incubated for 30 min at room temperature in the dark. After staining, the levels of cellular subpopulations in each cell cycle phase were determined using a Muse Cell Analyser (Millipore). Experiments were performed at least four times.

K562 cells [2] = experiment: Analysis of mRNA expression (RT-qPCR); assay type: cell-based, human; details: 16 h; IS1 50 µM, IS8 12 µM, IS10 20 µM, imatinib 2 µM, GNF-2 2 µM
From the text: In the next step, the inhibitory potential of the tested compounds at the gene and protein levels was verified in K562 cells. For this purpose, we examined changes in the expression of the ABL signalling pathway and ABL downstream targets after exposure to IS1, IS8 and IS10. […] The enhanced transcription of the ABL gene might be related to the low protein level that was reached after exposure to the tested drugs. Thus, the cellular machinery could induce increased protein synthesis to counteract the effects of inhibition. […] The second gene studied, SRC, is involved in signal transduction from growth factors and receptors. Similar to ABL, the Src protein has oncogenic activity and is overexpressed in cancer cells. It is also important to emphasise that both kinases form a specific direct signalling network, as […].
Reverse transcription was carried out with 1 μg total RNA using a ProtoScript M-MuLV First Strand cDNA Synthesis Kit (New England BioLabs). The RT-qPCR was performed using a CTX96 Real-Time PCR Detection System (Biorad) in a 10 μL reaction volume containing Luna Universal qPCR Master Mix (New England BioLabs), specific primer pair mix and cDNA. The PCR reaction was performed as follows: initial denaturation at 95 °C for 60 s; followed by 40 cycles of denaturation at 95 °C, 15 s; annealing (primer-specific temperature for 30 s) and extension at 72 °C for 30 s. Melting curve analysis was used to determine the specific PCR products. The results were analysed based on comparison of the expression of the target genes with the reference gene – HPRT1 using the 2^−^ΔΔ^CT method. Experiments were performed at least four times.

K562 cells [3] = experiment: Immunoblotting; assay type: cell-based, human; details: 16 h
From the text: Changes in the expression of the BCR-ABL and ABL proteins and their downstream targets, such as STAT5, Src, Akt and Fyn after treatment with the tested compounds were also examined. As shown in Figure 7(B), no significant changes in the phosphorylation of BCR-ABL were observed after treatment with the tested styrylquinazolines. […] For reference inhibitors, there were greater changes in the expression of this protein. There were also interesting changes in the downstream targets of ABL, STAT5 and Src. […] Unfortunately, contrary to our assumptions and earlier results, IS1 was ineffective in inhibiting ABL, STAT5, and Src phosphorylation at the concentrations used. However, this derivative caused downregulation of Fyn expression, which could confirm its high inhibitory potential from in vitro kinase assays. […] Thus, these compounds were capable of blocking the pro-survival pathway facilitated by Akt kinase.
Prior to the experiment, K562 cells were seeded at a density of 500,000 cells per well in 3 cm Petri dishes (Nunc). […] After 16 h of exposure, cells were collected, centrifuged, and lysed on ice in complete RIPA buffer containing Halt Protease Inhibitor Cocktail, Halt Phosphatase Inhibitor Cocktail and 0.5 M EDTA (all from Thermo Scientific). Protein quantification was measured using a BCA Protein Assay Kit (Thermo Scientific) according to the manufacturer’s protocol. Equal amounts of the proteins were electrophoresed on SDS-page gels and transferred to nitrocellulose membranes. After blocking in 5% non-fat milk prepared in TTBS (Tris buffered saline with Tween 20), membranes were incubated overnight at 4 °C with specific primary antibodies (all from Cell Signalling) at a dilution of 1:1000 for c-ABL, phospho-c-ABL, Stat5, phospho-Stat5, cyclin E1, p27, PARP, AIF, BID, Src, Fyn, Akt, phospho-Akt, and at a dilution of 1:2000 for reference proteins (vinculin, β-actin and GAPDH). The next day, membranes were washed and incubated with horseradish peroxidase (HRP)-conjugated secondary antibodies for 1 h at room temperature. Chemiluminescence signals were recorded after staining with SuperSignal™ West Pico Chemiluminescent Substrate (Thermo Scientific) using a ChemiDoc™ XRS + System (BioRad). Experiments were performed four to five times. Densitometric analysis was performed using ImageJ software (Wayne Rasband, National Institutes of Health, USA).

T1 sequence (Q06187 whole entry): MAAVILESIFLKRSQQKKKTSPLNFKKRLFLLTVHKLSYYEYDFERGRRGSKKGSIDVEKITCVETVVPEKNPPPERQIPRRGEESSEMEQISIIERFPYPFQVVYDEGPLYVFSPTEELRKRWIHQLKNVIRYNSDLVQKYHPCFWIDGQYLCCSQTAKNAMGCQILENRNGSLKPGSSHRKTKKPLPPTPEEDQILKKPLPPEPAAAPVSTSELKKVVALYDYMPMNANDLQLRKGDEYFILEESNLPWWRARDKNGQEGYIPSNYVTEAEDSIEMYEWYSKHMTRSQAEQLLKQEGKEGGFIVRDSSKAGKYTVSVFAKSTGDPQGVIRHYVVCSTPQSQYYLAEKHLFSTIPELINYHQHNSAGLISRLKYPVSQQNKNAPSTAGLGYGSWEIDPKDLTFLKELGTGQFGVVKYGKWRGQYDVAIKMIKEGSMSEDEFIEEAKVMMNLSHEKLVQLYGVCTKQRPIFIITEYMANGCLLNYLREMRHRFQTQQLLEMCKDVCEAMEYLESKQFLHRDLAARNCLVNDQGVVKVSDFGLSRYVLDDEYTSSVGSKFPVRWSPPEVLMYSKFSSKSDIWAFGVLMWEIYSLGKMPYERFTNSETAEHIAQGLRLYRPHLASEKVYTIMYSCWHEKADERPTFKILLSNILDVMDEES
T2 sequence (Q13882 whole entry): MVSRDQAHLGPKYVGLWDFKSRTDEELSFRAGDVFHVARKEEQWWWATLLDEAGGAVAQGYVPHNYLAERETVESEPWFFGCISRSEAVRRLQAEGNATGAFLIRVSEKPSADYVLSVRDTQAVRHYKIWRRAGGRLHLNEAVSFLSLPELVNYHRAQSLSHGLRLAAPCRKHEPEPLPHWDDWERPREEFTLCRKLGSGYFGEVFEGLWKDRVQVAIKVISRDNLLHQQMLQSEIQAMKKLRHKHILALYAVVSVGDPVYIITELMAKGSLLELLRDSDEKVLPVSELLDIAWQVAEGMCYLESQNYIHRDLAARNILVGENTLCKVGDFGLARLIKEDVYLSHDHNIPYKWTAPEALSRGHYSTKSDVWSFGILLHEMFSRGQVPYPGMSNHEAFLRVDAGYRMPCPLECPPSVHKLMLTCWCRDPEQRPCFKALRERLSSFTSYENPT

inhibition at 0.5 µM (BTK): 0% | inhibition at 0.5 µM (BRK): 0% | inhibition at 0.5 µM (CSK): 0% | inhibition at 0.5 µM (Fyn A): 0% | inhibition at 0.5 µM (Lyn B): 0%
Structure (SMILES): Cc1ccc(NC(=O)c2ccc(CN3CCN(C)CC3)cc2)cc1Nc1nccc(-c2cccnc2)n1 [Imatinib, imatinib, reference compound]
Cell cycle arrest (phase) (K562 cells [1]): inhibition of G0/G1 phase | CCNE2 expression (mRNA) (K562 cells [2]): increase | Expression of the ABL gene (mRNA) (K562 cells [2]): slight non-significant decrease | SRC mRNA levels (K562 cells [2]): significant decrease | AIF protein (K562 cells [3]): significant increase | Src protein expression / phosphorylation (K562 cells [3]): significant accumulation | STAT5 phosphorylation (K562 cells [3]; at the concentrations used): stronger effect

Source: PMC10120462, “Styrylquinazoline derivatives as ABL inhibitors selective for different DFG orientations” (Journal of Enzyme Inhibition and Medicinal Chemistry, 2023)
